Data on one compound can be found in US20030186943A1, “Substituted gamma-phenyl-delta-lactams and uses related thereto” (Inflazyme Pharmaceuticals Ltd., priority 1998, published 2003).

SMILES strings stand for the structures. “And” between values parts separate entries of the source, which are not always exact repeats. Equal values may be shown once. A value given as a limit tells only on which side of the number the result lay.

Assay [1] has as its system High Affinity Rolipram Binding Site of PDE4 in Mouse Brain. The experiment in a line: Displacement of [3H]-rolipram from its high affinity binding site (HARBS). Conditions: ratio of IC50 for PDE4 catalytic activity to concentration displacing 50% of rolipram from HARBS.
Another assay has as its system Th1 cells. The experiment in a line: Proliferation of differentiated Th1 CD4+ T cells. Type of assay: cell-based, mouse. Conditions: CD4+ T cells already differentiated into Th1 phenotype. The protocol: The differentiation of naive CD4 T cells toward Th1 and Th2 lineages was performed as follows: 1×10^5 AND-lymph node T cells were cultured with […] B10.BR irradiated spleen cells in 2 ml of culture media with the following supplements: for Th1 cell differentiation, 100 U/mL IFNγ, 25U/mL IL2 and 10 ug/mL anti-IL4; for Th2 cell differentiation, 150 U/mL IL4, 25 U/mL IL2 and 10 ug/mL anti-IFNγ. After 3-4 days the wells were split 1:4 with the same additions. After 7 days the cells were harvested and washed 3 times to remove cytokines in the supernatents. 1×10^5 cultured cells were restimulated with 5×10^5 irradiated B10BR spleen cells +5 μM pcc peptide in 250 μl culture media without any added cytokines. The supernatents were harvested after 40 hrs and assessed for IL2, IL4 and IFNγ by ELISA. Test compounds were added throughout the differentiation of the culture.
Cultured Th1 and Th2 cells generated in the absence of test compounds were tested for proliferation and cytokine activity as described above during antigen stimulation in the presence of compound.

Assay [2] deals with tail skin allograft rejection (C57BL/6 donor, BALB/c recipient mice). The experiment in a line: Murine tail skin allograft transplantation model. Type of assay: in vivo, mouse. The note with it: 10 mg/kg i.p. twice daily. On the procedure: Tail skin from donor H-2 b C57BL/6 mice was transplanted onto recipient female H-2^d BALB/c mice (Lagodzinski, Z. et al., Immunology 71:148-150 (1990)). Five mice were included per group. […] Test compounds and CsA were administered twice daily intraperitoneally at a dose of 10 mg/kg beginning at one day prior to transplantation and for 15 days after transplantation, including the day of transplantation. Mice were monitored and scored daily over 15 days post transplantation for graft rejection.
Skin allograft rejection is primarily mediated by T lymphocytes with little evidence for a major role of antibodies under most circumstances. Skin allograft rejection requires the activation of helper and cytotoxic effector T cell populations. Graft rejection was assessed by monitoring allograft necrosis. Because tail skin is visibly distinct from the surrounding trunk skin of the mouse, the course of rejection can be easily monitored. Fully intact grafts were scored as 100%. Complete graft rejection was defined as >90% graft necrosis. Acute graft rejection generally proceeds via a series of visually obvious events beginning with swelling and erythema of the graft. These events are followed by graft desiccation and scab formation over most or all of the graft, signaling the loss of the viable graft tissue. Scab formation is subsequently followed by shrinkage and scar formation.

The subject of assay [3] is IL-2 production in concanavalin A stimulated primary human CD4+ T-cells. The experiment in a line: IL-2 production (Th1 profile) in concanavalin A stimulated primary human CD4+ T-cells. Conditions: conA stimulated CD4+ selected cells. The class given is cell-based. From the text:
The assay on the primary human T-cells involves their activation by concanavalin A (conA); (Sigma, Catalogue No. C 5275), followed by ELISA detection for cytokines for either profile. In the case of Th1-profiles, IL-2 and INF-γ are used as benchmarks while IL-10 is the indicator for a Th2-profile. Biologically, these indicators are useful in that IL-2 is the major T-cell mitogen while IL-10 represents a powerful yet selective immunosuppressive agent.
Approximately 60 cc of whole human blood was collected into ACD anti-coagulant vacutainer tubes. 15 mL Ficoll Paque 1077 was aliquoted into 6 sterile 50 mL conical tubes. 10 mL of blood was slowly layered on top of the Ficoll Paque by holding the tube upright and resting the pipette tip at the inside edge of the tube and allowing the blood to slowly run down the side of the tube. Tubes were spun at 1700 rpm for 30 minutes at room temperature. The plasma layer above the leukocyte band was aspirated off and a pasteur pipette was used to lift off the leukocyte band and transfer it to a sterile 50 mL conical tube. Cells from each leukocyte gradiant tube were transferred to a separate 50 mL conical tube. Sterile PBS pH 7.4 was added to each 50 mL conical tube containing cells from leukocyte band to a volume of 50 mL. Tubes were spun at 1100 rpm for 10 minutes. Supernatant was aspirated off and the cells were resuspended in 50 mL PBS pH 7.4. Tubes were re-centrifuged at 1100 rpm for 10 minutes. Supernatant was aspirated off and the cells were resuspended in appropriate medium at a density of 5×10^7 cells/mL or 2×10^6 cells/mL.
CD 4+T-cell Preparation: Cells from Leukocyte preparation were resuspended in sterile PBS pH 7.4 supplemented with 2-6% Fetal Bovine Serum (FBS) at a density of 5×10^7 cells/mL. Cells were then ready for isolation.
100 μL of antibody cocktail (Stem Cell Technologies, Catalogue No. 14062) was added for each mL of cells and mixed well. Cells+Ab cocktail was incubated on ice for 30 minutes. After 30 minute incubation, 60 μL of magnetic colloid was added for each mL of cells, and mixed well. Cells+Ab cocktail+magnetic colloid were incubated on ice for 30 minutes. After a final 30 minute incubation cells were ready for magnetic cell separation.
Sample was loaded into the top of a column. The stopcock was turned to allow the flow of media down through the column, and the media was collected into a collection tube. PBS supplemented with 2-6% FBS was added to the column until three column volumes had been collected (not including the volume of the start sample). Cells were washed, counted, and resuspended in RPMI 1640 with 10% FBS+2 mM L-glutamine at a density of 1×10^6 cells/mL.
CD4+ T-cells were isolated as described above. Cells were suspended in RPMI 1640 media (Stem Cell Technologies Inc.; Catalogue No. 36750) with 10% FBS+2 mM L-glutamine at a density of 1×10^6 cells/mL. Cells were maintained on ice as test compounds were prepared. Test compounds were prepared in a sterile 96-well assay plate at 50×the final desired test concentration, all wells contained an equal amount of dimethylsulfoxide vehicle. 500 μL of CD4^+ T-cells were added to each well of 24-well assay plate. 10 μL of each test compound working solution was added to the appropriate wells; two wells were left as stimulated and non-stimulated controls. 10 μL of concanavalin A (50×the final concentration) at 10 μg/mL was added to each well with the exception of the non-stimulated control wells. Cells were incubated at 37° C. for 48 hours. Conditioned media is then assessed by ELISA for the quantity of IL-2, […], TNFα and IL-10 present.
Tables 5A, 5B and 5C represent a synopsis of data across individuals with respects to the potency of compounds of the invention in their ability to inhibit cytokines that are likely to promote or depress a Th1 or Th2 response. […]

For another assay, the system named is CD8+ T-cells. The assay is described as follows: CD8+ T-cell proliferation (2C-TCR transgenic). Type of assay: cell-based, mouse. The note with it: at 5 μM. From the text: 2C-TCR transgenic mice (Sha W. C. et al., Nature 335:271-274, 1988) were used to provide a source of naive antigen specific CD8+T cells. The 2C-T cell antigen receptor recognizes the 2C peptide derived from the mitochondrial alpha-ketoglutarate dehydrogenase enzyme in the context of the Db class I MHC molecule.
To test the efficacy of a test compound in naive CD8+ T cell activation and proliferation, single cell suspensions of 2C lymph node (LN) T cells were isolated from 2C-TCR transgenic mice. 2C-T cells were stimulated with irradiated TAP−/− H-2d splenocytes or L^d transfected TAP−/− T2 cell line in the presence of varying concentrations of 2C peptide (0-10 uM). Proliferation was assessed by ^3H thymidine incorporation. Cell surface activation phenotype of T cells was performed by flow cytometric analysis

On to `COc1ccc([C@H]2COC(=O)C(Cc3ccc(OC4CCCC4)c(OC)c3)C2)cc1OC` (stereo partly shown) [Compound 136], for which the “PDE4:HARBS” value in assay [1] is on record as less than 1. In addition, the “inhibition of Th1 cells” value with Th1 cells was “approx. 30%”. Further, the “Average graft survival” value in assay [2] (from one day prior to and for 15 days after transplantation) was 15.4 days and 15.4 ± 1.3 days. The “Allograft survival rate (% at 9 days post-transplant)” value in assay [2] (9 days post-transplant) amounted to 100%. Further, the “# grafts surviving beyond 16 days p.t.” value in assay [2] (five mice per group) is recorded as 3. Further, the “Th1 versus Th2 cytokine profile” value in assay [3] is listed as “selective inhibition of a Th1 profile”. Besides, in the assay on CD8+ T-cells, the “inhibition of CD8+ T-cell proliferation” value is “approx. 40%”.
